Several values for one entry are separate records, joined by “and”; a condition that tells them apart may be missing. Equal entries are not always repeated.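 Cultured in 96-well plates, cells were exposed to test compound for 48 hours across five concentrations. Here, GI50 denotes the concentration required for 50% inhibition of growth. TGI denotes the concentration required for complete inhibition of growth.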 Where a SMILES comes first, the peptide text is derived from it. [ ]: non-standard residue; d: D form. Ac5c = NC1(C(=O)O)CCCC1
Experiments:
Assay in all cases: NCI tumour cell line growth inhibition, 48 h
[1] = system: ACHN renal
[2] = system: HCT-15 colon
[3] = system: MCF7 breast
[4] = system: NCI-H460 lung
[5] = system: OVCAR-4 ovarian
[6] = system: OVCAR-5 ovarian
[7] = system: OVCAR-8 ovarian
[8] = system: PC-3 prostate
[9] = system: SF-268 CNS
[10] = system: SK-OV-3 ovarian

Row | Compound | GI50 [1] | TGI [1] | GI50 [2] [µM] | TGI [2] | GI50 [3] [µM] | TGI [3] | GI50 [4] | TGI [4] | GI50 [5] [µM] | TGI [5] | GI50 [6] | TGI [6] | GI50 [7] | TGI [7] | GI50 [8] | TGI [8] | GI50 [9] | TGI [9] | GI50 [10] | TGI [10]
1 | O=S(=O)(NC1=NCCN1C(=S)SN1CCn2c1nsc2=S)c1ccc(Br)cc1 | 22.2 µM | 73.6 µM | 31.8 | > 100 µM | 31.7 | > 100 µM | 38.9 µM | > 100 µM | 49.2 | > 100 µM | > 100 µM | > 100 µM | 25.8 µM | 68.8 µM | 30.8 µM | > 100 µM | 39.4 µM | > 100 µM | 37.8 µM | > 100 µM
2 | O=Cc1ccc(-c2cc(C=O)c(-c3cccs3)[nH]2)s1 | 78.6 µM | 75 µM and > 100 µM | 74.8 | 75 µM and > 100 µM | 7.36 | 75 µM and > 100 µM | 48.2 µM | 75 µM and > 100 µM | 12 | 75 µM and > 100 µM | 66.4 µM | > 100 µM | > 100 µM | 75 µM and > 100 µM | > 100 µM | 75 µM and > 100 µM | > 100 µM | > 100 µM | > 100 µM | 75 µM and > 100 µM
3 | O=c1c2cc(Cl)ccc2oc2ccc(OCCCCCN3CCCCC3)cc12 | 5.28 µM | 11.2 µM | 1.26 | 3.45 µM | 5.24 | 14.6 µM | 1.73 µM | 5.55 µM | 5.5 | 11.9 µM | 5.17 µM | 11.2 µM | 6.09 µM | 14.2 µM | 6.05 µM | 12.7 µM | 5.28 µM | 12.2 µM | 6.96 µM | 13.4 µM
4 | CO[C@@H]1/C=C\C=C(/C)C(=O)NC2=CC(=O)C(NCCN(C)C)=C(C[C@@H](C)C[C@@H](OC)[C@@H](O)[C@H](C)/C=C(\C)[C@H]1OC(N)=O)C2=O | < 0.0167 µM and 0.0737 µM |  |  | 4.06 µM and 10.9 µM |  | 1.88 µM and 3.8 µM | < 0.0117 µM | 3.61 µM and 3.76 µM |  | 4.76 µM and 4.52 µM | 0.406 µM and 0.11 µM | 9.23 µM and 7.52 µM | 0.0216 µM | 2.95 µM and 6.36 µM | < 0.01 µM and 0.0264 µM | 33.6 µM and 17.8 µM | 1.19 µM and 0.209 µM | 16.5 µM and 16.2 µM |  | > 37.4 µM and 6.86 µM
5 | CC12OC(c3ccccc3)=CC(c3ccc(Cl)cc3)=C1C(c1ccccc1)=CC2=O (centres undefined) | 55.4 µM | > 100 µM | 26.3 | > 100 µM | 60.8 | > 100 µM | 34.8 µM | > 100 µM | 19 | > 100 µM | > 100 µM | > 100 µM | > 100 µM | > 100 µM | 34.4 µM | > 100 µM | > 100 µM | > 100 µM | > 100 µM | > 100 µM
6 | COC(=O)CCc1cc(OC)c2c(c1)C(C(=O)OC)C(c1ccc(OC)c(OC)c1)O2 (centres undefined) |  | > 100 µM |  | > 100 µM |  | > 100 µM | > 100 µM and 46.4 µM | > 100 µM |  | > 100 µM |  | > 100 µM | > 100 µM and 39.6 µM | > 100 µM | > 100 µM and 28.8 µM | > 100 µM | > 100 µM and 37.9 µM | > 100 µM | > 100 µM and 39.6 µM | > 100 µM
7 | CSc1ccc(C2=NN(C(=O)c3ccc(F)cc3)C(c3ccc(F)cc3)C2)cc1 (centres undefined) | 12.7 µM | 25.4 µM | 5.39 | 20.5 µM | 4.98 | 17.9 µM | 13 µM | 28.7 µM | 14.9 | 30.3 µM | 18.2 µM | 33.3 µM | 13.5 µM | 28.9 µM | 6.43 µM | 22.2 µM | 2.69 µM | 13.4 µM | 16.9 µM | 31.1 µM
8 | O=[N+]([O-])c1cc(Cl)c(Cl)c([N+](=O)[O-])c1Cl | 1.76 µM | 3.6 µM | 1 | 2.84 µM | 1.14 | 3.42 µM | 3.3 µM | > 100 µM | 1.69 | 3.06 µM | 2.13 µM | 4.18 µM | 1.34 µM | 2.97 µM | 1.81 µM | 3.57 µM | 1.77 µM | 3.39 µM | 3.88 µM | 13.4 µM
9 | NC1(C(=O)NC2(C(=O)O)CCCC2)CCCC1 (H-[Ac5c]-[Ac5c]-OH) |  | > 100 µM |  | > 100 µM |  | > 100 µM |  | > 100 µM |  | > 100 µM |  | > 100 µM |  | > 100 µM |  | > 100 µM |  | > 100 µM |  | > 100 µM
10 | Cn1c([N+](=O)[O-])cnc1/C=C1\Oc2ccccc2C1=O | 0.197 µM | 0.632 µM | 0.193 | 0.675 µM | 0.46 | 8.88 µM | 0.314 µM | 1.72 µM | 2.05 | 7.45 µM | 1.99 µM | 6.63 µM | 0.186 µM | 0.677 µM | 1.46 µM | > 22.7 µM | 0.303 µM | 1.66 µM | 1.62 µM | 6.34 µM
11 | Cc1nc2sc(C(=O)Nc3cccc(Cl)c3C)c(N)c2cc1C(=O)/C=C/c1ccccc1 | 0.327 µM | 1.09 µM | 0.183 | 0.817 µM | 0.192 | 3.32 µM | 0.424 µM | 1.74 µM | 1.23 | 7.03 µM | 0.714 µM | 1.74 µM | 0.543 µM | > 14.3 µM | 0.33 µM | 1.54 µM | 0.938 µM | 5.15 µM | 1.44 µM | 13 µM
12 | O=C(/C=C/c1ccc(F)cc1)c1ccc(Cl)cc1Cl | > 100 µM | > 100 µM | 43.8 | > 100 µM | 20.6 | 62.5 µM | 65.6 µM | > 100 µM | 82.9 | > 100 µM | 32.4 µM | 96.5 µM | 33.7 µM | > 100 µM | 31.3 µM | 96.8 µM | 74.5 µM | > 100 µM | > 100 µM | > 100 µM
13 | CC1=C2[C@@H](CC1)[C@]1(C)O[C@@](C3CCCCC3)(C[C@H]1OC(=O)CO)[C@H]2OC(=O)/C=C/c1ccccc1 | 0.0331 µM | 4.25 µM | 5.23 | 15.7 µM | 3.09 | 13.4 µM | 6.35 µM | 17.8 µM | 8.37 | 23.7 µM | 15.2 µM | 37.1 µM | 0.11 µM | 12.9 µM | 6.33 µM | 21.2 µM | 1.02 µM | 17.6 µM | 9.71 µM | 24.5 µM
14 | CC[C@H](NC(=O)[C@H](C)NC)C(=O)N1C[C@@H](O)C[C@H]1Cc1c(-c2[nH]c3cc(F)ccc3c2C[C@@H]2C[C@H](O)CN2C(=O)[C@H](CC)NC(=O)[C@H](C)NC)[nH]c2cc(F)ccc12 | > 100 µM | > 100 µM | > 100 | > 100 µM | > 53.3 | > 100 µM | > 100 µM | > 100 µM | 0.0598 |  | > 100 µM | > 100 µM | 31.2 µM | > 100 µM | > 100 µM | > 100 µM | > 100 µM | > 100 µM | < 0.0104 µM | 0.0189 µM
15 | Cc1cc(C)c([O-])c(CN(C)CCN(C)Cc2cc(C)cc(C)c2[O-])c1.O=C([O-])c1cccc(C(=O)[O-])n1.[Ti+4] | 2.43 µM | > 100 µM | 3.5 | > 100 µM | 3.17 | > 100 µM | 2.01 µM | > 100 µM | 2.87 | > 100 µM | 2.31 µM | > 100 µM | 2.8 µM | > 100 µM | 2.7 µM | > 100 µM | 3.91 µM | > 100 µM | 3.54 µM | > 100 µM
16 | COc1ccc(N2C(=O)CC(Cl)C2=O)cc1 (centres undefined) |  | 31.7 µM |  | 33.2 µM |  | > 100 µM |  | > 100 µM |  | 34.3 µM |  | 34.1 µM |  | 30.2 µM |  | > 100 µM |  | > 100 µM |  | > 100 µM
17 | COc1cc(/C=C/C(=O)CC(=O)/C=C/c2cc(OC)c(OC)c(OC)c2)cc(OC)c1OC | 3.95 µM | 14.1 µM | 3.32 | 12.7 µM | 2.13 | > 100 µM | 3.94 µM | 18.4 µM | 3.27 | 19.7 µM | 17.2 µM | > 100 µM | 3.04 µM | 13.8 µM | 3.02 µM | > 100 µM | 8.23 µM | > 100 µM | 12 µM | 67.6 µM
18 | O=C(O[C@H]1CN[C@H](C#Cc2cc3ncnc(Nc4ccc5c(ccn5Cc5cc(F)ccc5F)c4)c3s2)C1)N1CCOCC1 | 0.575 µM | > 25 µM | 3.55 | 17.5 µM | 4.13 | > 14.5 µM | 5.17 µM | 14 µM | 4.51 | 16.5 µM | 1.07 µM | 11.1 µM | 4.11 µM | 15.4 µM | 5.52 µM | > 23.7 µM | 3.23 µM | 8.8 µM | 0.0183 µM | 0.106 µM
19 | O=c1c2c(nc3n1CCS3)[nH]c1ccccc12 | > 100 µM | > 100 µM | > 100 | > 100 µM | > 100 | > 100 µM | > 100 µM | > 100 µM | > 100 | > 100 µM | > 100 µM | > 100 µM | > 100 µM | > 100 µM | > 100 µM | > 100 µM | > 100 µM | > 100 µM | > 100 µM | > 100 µM
20 | COc1ccc(/C=N\NC(=O)CN2CCN(c3cc4c(cc3F)c(=O)c(C(=O)N/N=C/c3ccc(OC)c(OC)c3)cn4C3CC3)CC2)cc1OC | > 100 µM | > 100 µM | > 100 | > 100 µM | 3.21 | > 100 µM | 2.6 µM | 6.87 µM | 3.17 | 11 µM | 2.39 µM | 6.94 µM | 3.81 µM | 81.1 µM | 2.76 µM | 9.53 µM | 2.53 µM | 7.12 µM | 3.22 µM | 9.67 µM

— PubChem BioAssay (NCI)
